Data: PubChem BioAssay AID624344 (Sanford-Burnham Center for Chemical Genomics, 2012)
Activity calls are given as the source filed them. The rule behind the calls is not given here.

Assays:
[1] = system: Cytotoxicity; assay: NFkB reporter suppression in cystic fibrosis bronchial cells – cell-based, uHTS hits, panel, cytotoxicity readout, dose response (AID 624344); conditions: CF bronchial epithelial cells, mean of runs
[2] = as above; conditions: CF bronchial epithelial cells, PAF-induced NFkB reporter inhibition; with PAF, mean of runs

With `CCCCCCc1cc2cc(C(=O)Nc3ccccc3OC)c(=O)oc2cc1O` the IC50 [1] was 49.4 µM and the IC50 [2] was “inactive”.
`CN(CCC#N)C(=O)COC(=O)c1ccccc1C(=O)c1ccc(Cl)c([N+](=O)[O-])c1` showed an IC50 [1] of 16.5 µM and an IC50 [2] of 5.31 µM.
In the case of `COc1ccc(-c2cn[nH]c2-c2ccc(OCc3ccccc3)cc2O)cc1`, the IC50 [1] is reported as 16.7 µM and the IC50 [2] is reported as 3.7 µM.
`C[C@H]1C[C@@H](C)C(=O)[C@@H]([C@H](O)CC2CC(=O)NC(=O)C2)C1` gave an IC50 [1] of 8.86 µM and an IC50 [2] of 0.37 µM.
Work on `NC(c1csc(NC(=O)Nc2cccc(Cl)c2)n1)c1ccccc1Cl` (centres undefined) yielded an IC50 [1] of 21.7 µM and an IC50 [2] of 7.54 µM.
Work on `COc1cc2c(Cc3ccccc3)cncc2cc1O` yielded an IC50 [1] of 36.8 µM and an IC50 [2] of 6.42 µM.
Compound `O=C(COc1ccc(Cl)cc1)Nc1ncc([N+](=O)[O-])s1` has an IC50 [1] of 3.32 µM and an IC50 [2] of 1.02 µM.
With `CN(Cc1ccco1)c1ncnc2ccc(-c3ccoc3)cc12` the IC50 [1] was 50.9 µM (inactive) and the IC50 [2] was 8.08 µM.
Work on `Cc1cnc(NC(=O)C2CC(=O)N(c3cccc(Cl)c3)C2)s1` (centres undefined) yielded an IC50 [1] of 29.1 µM and an IC50 [2] of 3.18 µM.
Compound `O=C(NCCCSc1ccccc1)c1cc(Cl)ccc1O` has an IC50 [1] of 7.97 µM and an IC50 [2] of 5.03 µM.
Compound `CC1CCc2c(sc3ncnc(N4CCOCC4)c23)C1` (centres undefined) has an IC50 [1] of 20.4 µM and an IC50 [2] of 4.1 µM.
In the case of `O=C(/C=C/c1cccc([N+](=O)[O-])c1)n1cnc2ccccc21`, the IC50 [1] is reported as 11.2 µM and the IC50 [2] is reported as 1.99 µM.
For `Cc1nc2sc(C(N)=O)c(N)c2c2c1CCCC2`, the IC50 [1] was 64 µM (inactive) and the IC50 [2] was 1.18 µM.
For `O=C(c1ccccc1)C1OC1C(=O)c1ccccc1` (centres undefined), the IC50 [1] was 54.5 µM (inactive) and the IC50 [2] was 6.25 µM.
For `CCOc1ccc(-n2c(C)c(C(C)=O)c3cc(O)ccc32)cc1`, the IC50 [1] was > 79 µM (inactive) and the IC50 [2] was 1.87 µM.
Work on `COc1ccc(CN(C(=O)CSc2nnc(-c3c[nH]c4ccccc34)o2)c2ccc(F)cc2)cc1OC` yielded an IC50 [1] of 7.44 µM and an IC50 [2] of 3.94 µM.
Compound `Cc1cc(C)c(C#N)c(SCC(=O)c2ccc(Cl)cc2Cl)n1` has an IC50 [1] of 14.8 µM and an IC50 [2] of 6.02 µM.
`COc1ccc(-c2nc(N3CCOCC3)nc3n[nH]c(N)c23)cc1` showed an IC50 [1] of 9.47 µM and an IC50 [2] of 6.92 µM.
`CC(=O)Oc1c(Br)cc(N(C(C)=O)S(=O)(=O)c2ccccc2)c2ccccc12` showed an IC50 [1] of 9.15 µM and an IC50 [2] of 7.32 µM.
For `Cc1ccc(NC(=O)c2ccccc2NS(=O)(=O)c2ccc(Cl)s2)cc1S(=O)(=O)N1CCOCC1`, the IC50 [1] was 8.23 µM and the IC50 [2] was 3.36 µM.
Compound `OCCNc1nc(Nc2ccc(Cl)c(Cl)c2)nc2ccccc12` has an IC50 [1] of 4.07 µM and an IC50 [2] of 2.16 µM.
Compound `CCCC1/C(=N/O)CC(c2ccccc2)NC1c1ccccc1` (centres undefined) has an IC50 [1] of 6.23 µM and an IC50 [2] of 5.52 µM.
With `O=C(Nc1ccc2c(c1)OCCO2)c1cc(-c2ccccn2)nc2ccc(Br)cc12` the IC50 [1] was 49.4 µM and the IC50 [2] was “inactive”.
In the case of `c1nc(NCc2ccc3c(c2)OCO3)c2cc(-c3ccoc3)ccc2n1`, the IC50 [1] is reported as 5.93 µM and the IC50 [2] is reported as 0.34 µM.
`O=C(CSc1nc(C2CC2)nc2ccccc12)Nc1cccc(O)c1` showed an IC50 [1] of 42.8 µM and an IC50 [2] of 2.58 µM.
Work on `COc1ccc(Nc2nccc(-c3cccc(N)c3)n2)cc1` yielded an IC50 [1] of 42.6 µM and an IC50 [2] of 4.14 µM.
`O=C(Nc1ccc([N+](=O)[O-])cc1)Nc1ccc(Cl)cc1F` showed an IC50 [1] of 2.19 µM and an IC50 [2] of 2.92 µM.
`O=C(COC(=O)c1c2c(nc3ccccc13)CCN(Cc1ccccc1)C2)Nc1c(F)cccc1F` gave an IC50 [1] of 2.64 µM and an IC50 [2] of 3.28 µM.
Compound `O=c1[nH]c2ccccc2n1C1CCN(C(c2cccc3ccccc23)c2nnnn2Cc2ccccc2)CC1` (centres undefined) has an IC50 [1] of 10 µM and an IC50 [2] of 3.25 µM.
`CCCCCCCCCCCCCCC(O)C[N+](C)(CCO)CCO` (centres undefined) showed an IC50 [1] of 5.47 µM and an IC50 [2] of 4.61 µM.
For `CC(C)C[C@@H](CN1CCCC1CN1C(=S)NC[C@@H]1Cc1ccc(O)cc1)N1C[C@H](Cc2ccc(O)cc2)N(CC2CCCCC2)C1=S` (some centres undefined), the IC50 [1] was 19.8 µM and the IC50 [2] was 9.1 µM.
`O=C(Nc1cccc(Cl)c1)Nc1cc(S(=O)(=O)N2CCCCC2)ccc1Cl` showed an IC50 [1] of 9.07 µM and an IC50 [2] of 6.4 µM.
`Cc1cccc(NC(=O)c2nc[nH]c2C(=O)NCCCNC(=O)c2[nH]cnc2C(=O)Nc2cccc(C)c2)c1` showed an IC50 [1] of 11.4 µM and an IC50 [2] of 4.07 µM.
`Cc1ccc(Nc2nc3nonc3[nH]c2=O)cc1Cl` showed an IC50 [1] of 15.1 µM and an IC50 [2] of 4.7 µM.
In the case of `CCOC(=O)C1(C(=O)OCC)COC(=O)C1CN1Cc2cc3ccccc3nc2C1` (centres undefined), the IC50 [1] is reported as 11.1 µM and the IC50 [2] is reported as 7.48 µM.
For `O=S(=O)(Nc1cccc2cccnc12)c1ccccc1`, the IC50 [1] was 44.5 µM and the IC50 [2] was 1.69 µM.
With `CCNC(=O)C1(C)CCCN(Cc2ccc(-c3ccccc3)o2)C1` (centres undefined) the IC50 [1] was > 79 µM (inactive) and the IC50 [2] was 9 µM.
With `O=C1NC(=S)N/C1=C\c1cccnc1` the IC50 [1] was > 79 µM (inactive) and the IC50 [2] was 5.71 µM.
For `COc1ccccc1-n1nnnc1S(=O)(=O)Cc1ccc(Cl)cc1`, the IC50 [1] was 2.44 µM and the IC50 [2] was 1.28 µM.
Compound `Cc1c(Cl)cccc1NC(=O)COC(=O)c1c2c(nc3ccccc13)CCN(Cc1ccccc1)C2` has an IC50 [1] of 13.5 µM and an IC50 [2] of 6.85 µM.
For `COC(=O)C1=C(C(=O)OC)[C@@H]2N(Cc3ccccc3)c3ccccc3[C@@]23C[C@@H](C(=O)OC)N(C(=O)c2ccc(Br)cc2)C3=N1`, the IC50 [1] was 28.5 µM and the IC50 [2] was 5.67 µM.
For `Cc1ccc2nc(C(F)(F)F)c(C#N)c(N)c2c1`, the IC50 [1] was 9.13 µM and the IC50 [2] was 3.26 µM.
